According to PMC9950431, “A bivalent remipede toxin promotes calcium release via ryanodine receptor activation” (Nature Communications, 2023):
“Also recorded” adds a separate entry of the source.

Assays:
RyR1 [1] = molecular target: T1, RyR1 (Oryctolagus cuniculus, UniProt P11716); assay: Single channel electrophysiology of RyR1 channels inserted into lipid bilayers (exposure to peptide); type: biochemical, New Zealand white rabbit (skeletal SR); details: for relPo: without WO, relative to control
T1 construct: skeletal SR vesicles were isolated from the back and leg muscles of mature female New Zealand white rabbits; from tissue; host or cells: rabbit back and leg skeletal muscle, sarcoplasmic reticulum vesicles
Description: Cardiac SR was prepared from mature female crossbred sheep hearts, and skeletal SR vesicles were isolated from the back and leg muscles of mature female New Zealand white rabbits[29],[54] with approval from the ANU Animal Experiment Ethics Committee Protocol Number A2015/35. […] Solutions for vesicle incorporation contained (mM): cis 230 caesium methanesulfonate (CsMS); 20 CsCl; 1 CaCl2 and 10 […] (TES) pH 7.4 and trans 30 CsMS; 20 CsCl; 1 CaCl2 10 TES; pH 7.4. […] Following incorporation, 200 mM CsMS was added to the trans solution and the cis solution exchanged with recording solution containing (mM): 230 CsMS; 20 CsCl; 0.001 CaCl2;10 TES and pH 7.4, with [Ca^2+] set by a [BAPTA] determined using a Ca^2+ electrode. The cytoplasmic and luminal solutions contained 1 μM and 1 mM Ca^2+ respectively, with symmetrical 250/250 mM CsMS. Bilayer voltage was switched between +40 mV and −40 mV (cytoplasmic voltage relative to grounded luminal solution) every 30 s. The activity of the RyR channels used here included 1 µM Ca^2+ in the cytoplasmic solution and 1 mM Ca^2+ in the luminal solution[29],[55]. Electrophysiology experiments were analysed using Channel 2 (P.W. Gage, M. Smith, Australian National University) and Channel 3 (N.W. Laver, University of Newcastle, Australia) software, available from the authors upon request. Statistical analyses were performed using Microsoft Excel (Office 365). […] Following most incorporation events, a single channel only was active in the bilayer and channel open probability (Po), mean open time (To), mean closed time (Tc) and open event frequency (Fo) were measured. When 2–4 channels were active in a bilayer, PO was approximated from the fractional mean current (I’F), i.e., mean current divided by maximum current. I’F is equal to PO in a single channel and indicates the average PO of multiple channels in a bilayer. […] Experiments at UN also included a minority of multi-channel experiments. The bilayer rigs, solution composition, source of channels, data acquisition and analyses methods were all identical.
Statistical analysis of single channel data was performed using Excel spreadsheets and embedded Students t-test functions or a sign test as indicated in the graphs in Figs. 1 and 3.

RyR1 [2] = molecular target: T1, RyR1; assay: Washout (reversibility/avidity) single channel experiments, RyR1; type: biochemical, New Zealand white rabbit (skeletal SR)
Description: Cardiac SR was prepared from mature female crossbred sheep hearts, and skeletal SR vesicles were isolated from the back and leg muscles of mature female New Zealand white rabbits[29],[54] with approval from the ANU Animal Experiment Ethics Committee Protocol Number A2015/35. […] Solutions for vesicle incorporation contained (mM): cis 230 caesium methanesulfonate (CsMS); 20 CsCl; 1 CaCl2 and 10 […] (TES) pH 7.4 and trans 30 CsMS; 20 CsCl; 1 CaCl2 10 TES; pH 7.4. SR vesicles routinely incorporated with the cytoplasmic surface of the SR and RyR facing the cis chamber. Following incorporation, 200 mM CsMS was added to the trans solution and the cis solution exchanged with recording solution containing (mM): 230 CsMS; 20 CsCl; 0.001 CaCl2;10 TES and pH 7.4, with [Ca^2+] set by a [BAPTA] determined using a Ca^2+ electrode. […] Electrophysiology experiments were analysed using Channel 2 (P.W. Gage, M. Smith, Australian National University) and Channel 3 (N.W. Laver, University of Newcastle, Australia) software, available from the authors upon request. […] Following most incorporation events, a single channel only was active in the bilayer and channel open probability (Po), mean open time (To), mean closed time (Tc) and open event frequency (Fo) were measured. […] In all experiments control channel activity was recorded for 3 to 5 min before exposure to the test compound. […]

T1 sequence (P11716 whole entry): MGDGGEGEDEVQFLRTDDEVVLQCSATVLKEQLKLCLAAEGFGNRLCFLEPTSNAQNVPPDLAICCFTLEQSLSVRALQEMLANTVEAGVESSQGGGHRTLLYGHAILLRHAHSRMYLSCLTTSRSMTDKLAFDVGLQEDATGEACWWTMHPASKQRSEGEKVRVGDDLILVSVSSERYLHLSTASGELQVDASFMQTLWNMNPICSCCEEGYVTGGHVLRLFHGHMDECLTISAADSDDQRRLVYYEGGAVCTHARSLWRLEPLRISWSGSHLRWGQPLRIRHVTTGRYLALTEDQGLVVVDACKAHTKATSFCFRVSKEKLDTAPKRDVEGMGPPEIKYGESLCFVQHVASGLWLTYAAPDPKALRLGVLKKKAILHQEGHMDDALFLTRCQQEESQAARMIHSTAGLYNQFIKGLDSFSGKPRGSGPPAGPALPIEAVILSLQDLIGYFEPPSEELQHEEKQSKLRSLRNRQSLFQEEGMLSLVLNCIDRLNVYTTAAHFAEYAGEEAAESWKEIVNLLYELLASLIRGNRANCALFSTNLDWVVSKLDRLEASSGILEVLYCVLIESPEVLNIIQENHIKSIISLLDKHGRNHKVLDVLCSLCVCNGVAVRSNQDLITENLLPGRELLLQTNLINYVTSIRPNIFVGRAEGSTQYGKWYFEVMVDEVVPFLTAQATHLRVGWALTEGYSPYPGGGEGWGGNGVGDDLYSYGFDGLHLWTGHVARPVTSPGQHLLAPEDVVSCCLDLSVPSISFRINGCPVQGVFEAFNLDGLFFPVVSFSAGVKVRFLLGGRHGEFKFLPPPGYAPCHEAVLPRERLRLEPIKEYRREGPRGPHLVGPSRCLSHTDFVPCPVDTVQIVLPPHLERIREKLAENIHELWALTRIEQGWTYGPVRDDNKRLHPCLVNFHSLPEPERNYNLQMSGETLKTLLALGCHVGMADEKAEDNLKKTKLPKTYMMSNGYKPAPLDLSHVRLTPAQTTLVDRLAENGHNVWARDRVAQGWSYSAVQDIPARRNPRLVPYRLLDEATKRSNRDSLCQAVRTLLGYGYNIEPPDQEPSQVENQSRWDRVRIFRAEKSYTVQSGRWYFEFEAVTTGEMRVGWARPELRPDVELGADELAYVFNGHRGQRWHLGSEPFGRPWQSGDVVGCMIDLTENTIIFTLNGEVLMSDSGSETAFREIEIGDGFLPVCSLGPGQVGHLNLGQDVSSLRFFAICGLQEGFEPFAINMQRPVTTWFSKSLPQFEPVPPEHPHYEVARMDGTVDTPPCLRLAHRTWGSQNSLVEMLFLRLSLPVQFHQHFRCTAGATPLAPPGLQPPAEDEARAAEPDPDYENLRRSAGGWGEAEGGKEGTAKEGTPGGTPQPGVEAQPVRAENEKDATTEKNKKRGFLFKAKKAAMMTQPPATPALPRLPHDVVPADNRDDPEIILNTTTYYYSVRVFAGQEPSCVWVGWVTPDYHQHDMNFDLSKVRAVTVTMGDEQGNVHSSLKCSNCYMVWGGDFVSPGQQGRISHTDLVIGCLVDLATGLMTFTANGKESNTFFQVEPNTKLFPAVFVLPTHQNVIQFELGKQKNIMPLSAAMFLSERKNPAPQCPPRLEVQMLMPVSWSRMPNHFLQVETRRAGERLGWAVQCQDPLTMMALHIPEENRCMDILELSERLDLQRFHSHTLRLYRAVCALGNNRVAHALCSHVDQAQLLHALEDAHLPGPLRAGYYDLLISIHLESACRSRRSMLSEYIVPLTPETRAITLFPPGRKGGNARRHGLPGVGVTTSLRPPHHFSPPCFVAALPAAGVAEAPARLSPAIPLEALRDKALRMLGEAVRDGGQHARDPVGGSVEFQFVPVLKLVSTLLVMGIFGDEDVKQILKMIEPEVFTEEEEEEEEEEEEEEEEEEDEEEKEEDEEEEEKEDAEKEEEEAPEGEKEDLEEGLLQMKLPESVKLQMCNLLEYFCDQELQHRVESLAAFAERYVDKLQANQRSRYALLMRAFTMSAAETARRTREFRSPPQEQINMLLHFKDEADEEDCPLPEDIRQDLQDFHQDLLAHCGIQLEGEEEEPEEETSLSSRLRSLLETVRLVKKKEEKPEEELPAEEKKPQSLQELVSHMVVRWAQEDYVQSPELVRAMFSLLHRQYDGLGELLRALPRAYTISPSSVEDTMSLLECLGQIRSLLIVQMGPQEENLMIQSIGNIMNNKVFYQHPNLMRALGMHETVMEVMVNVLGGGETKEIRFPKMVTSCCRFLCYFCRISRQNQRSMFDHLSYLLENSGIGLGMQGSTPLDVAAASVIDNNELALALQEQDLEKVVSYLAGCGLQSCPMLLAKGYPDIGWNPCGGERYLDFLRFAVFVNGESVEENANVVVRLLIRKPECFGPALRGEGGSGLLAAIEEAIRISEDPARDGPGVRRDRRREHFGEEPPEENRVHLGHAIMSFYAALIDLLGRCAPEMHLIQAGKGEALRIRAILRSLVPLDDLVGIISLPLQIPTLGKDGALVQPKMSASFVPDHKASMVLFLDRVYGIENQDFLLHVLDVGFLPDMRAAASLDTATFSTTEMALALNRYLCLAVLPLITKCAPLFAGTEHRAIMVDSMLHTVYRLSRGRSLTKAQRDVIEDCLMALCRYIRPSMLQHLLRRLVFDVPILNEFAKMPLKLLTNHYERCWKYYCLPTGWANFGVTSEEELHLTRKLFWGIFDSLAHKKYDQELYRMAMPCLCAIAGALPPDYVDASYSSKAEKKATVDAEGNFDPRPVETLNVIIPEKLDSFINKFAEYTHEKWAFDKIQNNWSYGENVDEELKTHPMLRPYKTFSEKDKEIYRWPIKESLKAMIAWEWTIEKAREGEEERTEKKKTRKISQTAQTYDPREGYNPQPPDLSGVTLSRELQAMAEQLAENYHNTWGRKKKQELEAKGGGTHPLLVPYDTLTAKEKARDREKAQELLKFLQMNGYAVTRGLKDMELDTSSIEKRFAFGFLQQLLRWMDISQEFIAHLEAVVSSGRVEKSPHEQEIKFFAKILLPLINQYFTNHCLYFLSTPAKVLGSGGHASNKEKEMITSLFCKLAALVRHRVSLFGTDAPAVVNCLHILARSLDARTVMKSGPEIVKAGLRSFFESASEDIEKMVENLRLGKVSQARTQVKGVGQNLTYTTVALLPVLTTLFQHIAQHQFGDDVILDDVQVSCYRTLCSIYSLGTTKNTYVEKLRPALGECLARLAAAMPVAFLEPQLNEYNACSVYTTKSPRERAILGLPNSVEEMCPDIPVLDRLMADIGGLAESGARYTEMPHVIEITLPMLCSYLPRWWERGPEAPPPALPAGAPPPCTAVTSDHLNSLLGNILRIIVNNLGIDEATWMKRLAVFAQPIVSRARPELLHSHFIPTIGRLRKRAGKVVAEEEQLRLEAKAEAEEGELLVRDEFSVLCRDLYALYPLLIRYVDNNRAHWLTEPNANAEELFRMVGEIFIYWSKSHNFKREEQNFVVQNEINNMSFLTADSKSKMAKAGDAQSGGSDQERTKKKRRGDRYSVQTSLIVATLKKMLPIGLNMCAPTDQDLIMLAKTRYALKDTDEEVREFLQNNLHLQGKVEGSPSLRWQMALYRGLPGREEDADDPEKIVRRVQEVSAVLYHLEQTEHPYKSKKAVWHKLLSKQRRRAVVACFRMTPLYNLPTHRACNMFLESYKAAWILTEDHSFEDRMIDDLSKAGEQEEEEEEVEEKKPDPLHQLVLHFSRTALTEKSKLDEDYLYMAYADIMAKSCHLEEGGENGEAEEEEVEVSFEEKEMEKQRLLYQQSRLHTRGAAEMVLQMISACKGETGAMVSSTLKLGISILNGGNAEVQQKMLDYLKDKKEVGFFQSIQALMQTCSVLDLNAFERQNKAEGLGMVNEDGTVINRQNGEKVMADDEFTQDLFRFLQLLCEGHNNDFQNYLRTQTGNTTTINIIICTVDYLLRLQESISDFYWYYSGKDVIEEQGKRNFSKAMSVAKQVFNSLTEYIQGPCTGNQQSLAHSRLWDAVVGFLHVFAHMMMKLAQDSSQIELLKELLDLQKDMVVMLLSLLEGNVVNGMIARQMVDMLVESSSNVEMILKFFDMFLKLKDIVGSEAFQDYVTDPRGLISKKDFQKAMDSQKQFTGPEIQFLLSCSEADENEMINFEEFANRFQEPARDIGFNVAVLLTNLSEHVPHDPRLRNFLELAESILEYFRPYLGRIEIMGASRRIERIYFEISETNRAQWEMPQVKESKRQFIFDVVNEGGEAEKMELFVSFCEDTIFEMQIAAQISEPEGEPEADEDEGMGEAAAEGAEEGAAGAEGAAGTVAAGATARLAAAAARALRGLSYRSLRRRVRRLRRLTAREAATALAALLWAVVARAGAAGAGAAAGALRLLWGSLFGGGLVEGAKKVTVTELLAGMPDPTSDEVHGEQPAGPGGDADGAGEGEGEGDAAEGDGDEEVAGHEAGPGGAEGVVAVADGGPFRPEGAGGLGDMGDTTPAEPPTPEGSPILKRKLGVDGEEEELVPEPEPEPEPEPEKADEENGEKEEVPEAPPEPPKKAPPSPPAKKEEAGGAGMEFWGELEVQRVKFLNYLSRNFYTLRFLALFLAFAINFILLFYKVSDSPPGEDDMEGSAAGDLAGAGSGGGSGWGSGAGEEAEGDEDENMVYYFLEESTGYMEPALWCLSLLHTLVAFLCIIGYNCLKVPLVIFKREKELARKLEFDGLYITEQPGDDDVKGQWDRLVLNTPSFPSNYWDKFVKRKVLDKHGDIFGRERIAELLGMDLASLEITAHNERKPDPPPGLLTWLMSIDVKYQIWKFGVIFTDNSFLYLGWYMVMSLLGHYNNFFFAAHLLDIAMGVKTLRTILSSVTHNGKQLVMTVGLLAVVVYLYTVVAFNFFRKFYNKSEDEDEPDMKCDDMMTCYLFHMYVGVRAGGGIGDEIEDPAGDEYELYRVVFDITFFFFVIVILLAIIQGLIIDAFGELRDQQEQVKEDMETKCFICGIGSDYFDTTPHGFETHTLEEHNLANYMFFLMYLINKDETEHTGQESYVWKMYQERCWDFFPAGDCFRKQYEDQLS

φ-Xibalbin3-Xt3a
activity against RyR1 (discussion) (RyR1 [1]): even more potent than IpTxA
relPo (RyR1 [1]; 10 pM Xt3a, mean (sem in row below)): 4.209
relPo (RyR1 [1]; 10 pM Xt3a, replicate CT1012 n): 4.171
relPo (RyR1 [1]; 10 pM Xt3a, replicate CT1013 n): 17.6667
relPo (RyR1 [1]; 10 pM Xt3a, replicate CT1024 n): 1.745
relPo (RyR1 [1]; 10 pM Xt3a, replicate CT1051 n): 0.553
relPo (RyR1 [1]; 10 pM Xt3a, replicate CT1052 n): 1.086
relPo (RyR1 [1]; 10 pM Xt3a, replicate CT1055 n): 3.339
relPo (RyR1 [1]; 10 pM Xt3a, replicate CT1143 n): 0.669
relPo (RyR1 [1]; 10 pM Xt3a, replicate CT1144 n): 11.3
relPo (RyR1 [1]; 10 pM Xt3a, replicate CT1145 n): 13.6431
relPo (RyR1 [1]; 10 pM Xt3a, replicate CT1146 n): 1.397
channel open probability (PO) relative to baseline (RyR1 [1]; 10 pM to 1 µM): significant changes in all Xt3a concentrations tested
substate level, % of maximum conductance (RyR1 [1]; 100 pM Xt3a, −40 mV, prolonged gating to substate levels): < 50%
relPo (RyR1 [1]; 100 pM Xt3a, mean (sem in row below)): 2.735
relPo (RyR1 [1]; 100 pM Xt3a, replicate CT1012 n): 1.829
relPo (RyR1 [1]; 100 pM Xt3a, replicate CT1013 n): 17
relPo (RyR1 [1]; 100 pM Xt3a, replicate CT1024 n): 1.169
relPo (RyR1 [1]; 100 pM Xt3a, replicate CT1051 n): 0.6185
relPo (RyR1 [1]; 100 pM Xt3a, replicate CT1052 n): 1.17
relPo (RyR1 [1]; 100 pM Xt3a, replicate CT1055 n): 1.101
relPo (RyR1 [1]; 100 pM Xt3a, replicate CT1143 n): 1.262
relPo (RyR1 [1]; 100 pM Xt3a, replicate CT1144 n): 6.375
relPo (RyR1 [1]; 100 pM Xt3a, replicate CT1145 n): 3.125
relPo (RyR1 [1]; 100 pM Xt3a, replicate CT1146 n): 1.411
decline in PO compared with 10 nM Xt3a (RyR1 [1]; 0.1–1 µM Xt3a): ~ 50%
full conductance channel openings (high affinity activation) (RyR1 [1]; Xt3a up to 10 nM): led to an increase in full conductance channel openings
voltage-dependent promotion of channel substate activity (RyR1 [1]; −40 mV vs +40 mV, RyR1 and RyR2): greater in the presence of nanomolar concentrations of Xt3a in RyR1 than in RyR2
reversibility on washout (RyR1 [2]; 100 pM, 10 nM and 1 μM, early (2 to 3 min) and late (15 to 23 min) after washout): no significant washout of Xt3a effect was observed; also recorded: persistent activity after washout in our single-channel recordings for as long as the bilayers lasted
sub-state activity during washout (RyR1 [2]; maintained for as long as the bilayer lasted): sub-state activity increased during the washout period
